Data set [1] deals with T1, Aβ(1-40) (Homo sapiens, UniProt P05067).
T1 construct: […]; purchased Bachem, Torrance, Calif
Kind of data set: BASST (Beta-Amyloid Self-Seeding, Thioflavin T), inhibitors of self-seeded amyloid fibril growth. Type of data set: biochemical. As to conditions: 30 μM soluble Aβ(1-40), 37° C., 3 to 5 hours, thioflavin T fluorescence; replicate values; letter = synthetic lot; read-out: BASST (IC50 = μM). The procedure: (§1) An assay for inhibitors of self-seeded amyloid fibril growth
Assay Buffer—50 mM sodium phosphate, pH 7.5, 100 mM NaCl, 0.02% NaN3, 1 M urea (filter and store at 4° C.)
(§2) Typically, the solution should be stored until no lag phase is seen in the assay.
The following are the amounts of the components of the reaction mixture that result in each of the 50 assay wells:
• 1) Prepare the reaction mix above by mixing the components and storing on ice. • 2) Pipet 14.5 μL of reaction mixture into each of 50 wells of a polystyrene U-bottom 96-well microtiter plate (Corning 25881-96) on ice. • 3) Add 1.7 μL of diluted compound to be tested to each well in a column of eight, including solvent control. Serial 3-fold dilutions from 1 mM (100 μM final) in assay buffer−urea=7 dilutions+zero. Each 96-well plate can therefore accommodate 11 samples+1 Congo Red control (0.039-5 μM final in 2-fold steps). • 4) Seal the plate with aluminum film and incubate for 10 minutes on ice. • 5) Raise the temperature to 37° C. and incubate for 3 to 5 hours (depends on the lot of the peptide). • 6) Remove the aluminum film and add 250 μL/well of 5 μM thioflavin T (ThT) [T-3516, Sigma-Aldrich] in 50 mM glycine-NaOH, pH 8.5. Read fluorescence on a plate reader (ex=440 nm/20 nm; em=485 nm/20 nm) within 5 minutes. BAPA (Beta-Amyloid Peptide Aggregation)

The target in the next data set is T2, Aβ (1-40) peptide (Homo sapiens, UniProt P05067).
T2 construct: 10 μL 0.5 mg/mL Aβ (1-40) peptide in 20% HFIP
The data set is described as follows: BAPA (Beta-Amyloid Peptide Aggregation, pH 6.0, filtration). As to conditions: Aβ (1-40) 33 μM, pH 6.0, 2 to 4 hours at room temperature; replicate values; letter = synthetic lot. Type of data set: biochemical. On the procedure:
Each 96-well plate can therefore accommodate 11 samples+1 Congo Red control (0.039-5 μM final in 2-fold steps). • 4) Seal the plate with aluminum film and incubate for 10 minutes on ice. • 5) Raise the temperature to 37° C. and incubate for 3 to 5 hours (depends on the lot of the peptide). • 6) Remove the aluminum film and add 250 μL/well of 5 μM thioflavin T (ThT) [T-3516, Sigma-Aldrich] in 50 mM glycine-NaOH, pH 8.5. […] The purpose of this assays is to provide a higher volume method of assaying the amount of beta amyloid aggregation using an endpoint assay based on filtration. In this assay, hexafluoroisopropanol (HFIP) is used to break down the initial amyloid peptide to a monomer state and use a concentration of 33 μM which is high enough so that aggregation will occur at pH 6.0 in several hours. Methods: […] Then, we incubate for 2 to 4 hours at room temperature. […] We wash the filter plate with 100 μL of the same phosphate buffer. Aggregation was detected on a Microbeta counter after impregnating the filters with Meltilex (1450-441) and is corrected for background.

The target of another data set is T3, Aβ (1-42) (Homo sapiens, UniProt P05067).
T3 construct: Required Aβ (1-42) (California Peptide) was dried from its hexafluoroisopropanol (HFIP) stock solution; purchased California Peptide
Kind of data set: BATYM assay (Aβ (1-42) aggregation, Thioflavin T fluorescence). Type of data set: biochemical. The conditions noted are these: Aβ 1-42 final concentration 100 μM, 37° C., 1 day, letter = synthetic lot. The procedure:
Required Aβ (1-42) (California Peptide) was dried from its hexafluoroisopropanol (HFIP) stock solution. The Aβ (1-42) was dissolved in dimethylsulfoxide (DMSO) and then mixed with phosphate buffered saline (PBS) (pH 7.4). The mixed Aβ (1-42) solution was filtered with a 0.2 μm Omnipore membrane syringe filter Millipore, Bedford, Mass.). The compound to be tested in DMSO (50 times concentrate) was put into each well (0.5 μL/well) of a 96-well plate. The Aβ (1-42) solution was added into each well (24.5 μL/well). The plate was centrifuged at 1,000 g for 5 minutes and incubated at 37° C. for 1 day (Aβ 1-42; final concentration 100 μM).
After incubation Thioflavin T (ThT) (30 μM) solution in glycine-NaOH buffer (pH 8.5, 50 mM) was added into each well (250 μL/well), fluorescence was measured (ex=440/20 nm, em=485/20 nm) using a fluorescence plate reader. The inhibitory activity was calculated as the reduction of fluorescence with the following formula: Inhibition (%)={(F(Aβ)−F(Aβ+compound)}/{F(Aβ)−[…]}×100
The IC50s were calculated by a curve fitting program using the following equation. The data were obtained from two different experiments in triplicate.
x=Concentration of tested compound (M),

Data set [2] concerns the target T1, Aβ(1-40). Kind of data set: BASSR (Beta-Amyloid Self-Seeding Radioassay), inhibitors of self-seeded amyloid fibril growth. Type of data set: biochemical. The conditions noted are these: 30 μM soluble Aβ(1-40) + 125I-labeled Aβ(1-40), 37° C., 3 to 5 hours; replicate values; letter = synthetic lot; ppt = precipitate; V-shaped = inhibition followed by precipitation. The procedure: BASSR (Beta-Amyloid Self-Seeding Radioassay)
as §1
Assay Buffer—50 mM sodium phosphate, pH 7.5, 100 mM NaCl, 0.02% NaN3, 1 M urea (filter and store at 4° C.).
as §2
^125I-labeled Aβ(1-40)—150K-350K cpm/μL in 100% acetonitrile—0.1% trifluoroacetic acid (TFA)—1% β-mercaptoethanol (aliquots stored at −20° C.). ^125I-labeled Aβ(1-40) can be made in accordance with the procedure set forth by H. LeVine, III in Neurobiol. Aging, 16, 755, (1995), which is hereby incorporated by reference, or this reagent may be purchased from Amersham, Arlington Heights, Ill.
The following are the amounts of the components of the reaction mixture sufficient for 50 assay wells:
• 1) Prepare reaction mixture above by mixing components and storing on ice. • 2) Pipet 14.5 μL of reaction mixture into each of 50 wells on a polypropylene U-bottom 96-well microtiter plate on ice. (Costar 3794). • 3) Add 1.7 μL of diluted compound to be tested to each well in a column of eight, including solvent control. Serial 3-fold dilutions from 1 mM (100 μM final) in assay buffer−urea=7 dilutions+zero. Each 96-well plate can therefore accommodate 11 samples+1 Congo Red control (0.039-5 μM final in 2-fold steps). • 4) Seal the plate with aluminum film (Beckman 538619) and incubate for 10 minutes on ice. • 5) Raise the temperature to 37° C. and incubate for 3 to 5 hours (depending on the lot of the peptide). • 6) Remove the aluminum film and add 200 μL/well of ice cold assay buffer with urea, collecting the radiolabeled fibrils by vacuum filtration through 0.2 μm pore size GVWP filters in 96-well plates (Millipore MAGV N22, Bedford, Mass.). Determine the radioactivity of the filters using standard methods well-known to those skilled in the art. BASST (Beta-Amyloid Self-Seeding, Thioflavin T)

Where “and” joins values, the source holds several entries; their conditions need not be identical. Identical values can stand only once. Some results are limits rather than exact numbers.

T3 sequence (P05067 672-713 limits assumed): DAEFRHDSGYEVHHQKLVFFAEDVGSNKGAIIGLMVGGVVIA
T2 sequence (P05067 672-711 limits assumed): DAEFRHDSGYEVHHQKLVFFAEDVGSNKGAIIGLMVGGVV
T1 sequence (P05067 672-711 limits assumed): as above

With `CCCN(CCC)c1ccc(CCCc2ccc(Nc3ccccc3C(=O)O)cc2)cc1` [Example 43, 2-{4-[3-(4-Dipropylaminophenyl)propyl]phenylamino}benzoic acid], the IC50 – broadly, the midpoint of a concentration-inhibition curve – on Aβ(1-40) [1] is 0.3 µM; at Aβ (1-40) peptide, 63 µM; at Aβ (1-42) it was 24.2 µM; at Aβ(1-40) [2], > 100 µM.

For `CCCCN(CCCC)c1ccc(CCCc2ccc(Nc3ccccc3C(=O)O)cc2)cc1` [Example 44, 2-{4-[3-(4-Dibutylaminophenyl)propyl]phenylanino}benzoic acid], the IC50 at Aβ(1-40) [1] is 1 µM; against Aβ (1-40) peptide, 52 µM; on Aβ (1-42), 26.5 µM; on Aβ(1-40) [2] it was > 100 µM.

In the case of `CCCCN(CCCC)c1cccc(CCCc2ccc(Nc3ccccc3C(=O)O)cc2)c1` [Example 45, 2-{4-[3-(3-Dibutylaminophenyl)propyl]phenylamino}benzoic acid], the IC50 at Aβ(1-40) [1] was 1 µM; on Aβ (1-40) peptide, 32 µM; on Aβ (1-42) it was 21.5 µM; on Aβ(1-40) [2], > 100 µM.

As to `Clc1ccc(CCc2ccc(Nc3ccccc3-c3nnn[nH]3)cc2)cc1Cl` [Example 68, {4-[2-(3,4-Dichloro-phenyl)-ethyl]-phenyl}-[2-(1H-tetrazol-5-yl)phenyl]-amine], the IC50 at Aβ(1-40) [1] is 1 µM; at Aβ (1-40) peptide, 110 µM; against Aβ (1-42) it was > 100 µM; at Aβ(1-40) [2] it was > 100 µM.

Consider `O=C(O)c1ccccc1Nc1ccc(CCc2ccc(N3CC[C@@H]4CCCC[C@H]4C3)cc2)cc1` [Example 82, 2(4-{2-[(4aS,8aR)-4-(Octahydro-isoquinolin-2-yl)-phenyl]-ethyl}-phenylamino)-benzoic acid], for which the melting point (as a rule, the temperature, or range, at which the solid turns liquid) lay in the range of 203 to 206 °C. Moreover, the IC50 at Aβ(1-40) [1] is 2 µM and 300 nM (2×). Further, on Aβ(1-40) [2], the IC50 was > 100 µM.

As for `O=C(O)c1ccccc1Nc1ccc(CCc2ccc(Cl)c(Cl)c2)cc1` [Example 117, 2-{4-[2-(3,4-Dichloro-phenyl)-ethyl]-phenylamino}-benzoic acid monosodium], the IC50 at Aβ(1-40) [1] is 3 µM; against Aβ (1-40) peptide, > 100 µM; against Aβ (1-42) it was 61.3 µM; at Aβ(1-40) [2], > 100 µM.

In the case of `O=C(O)c1ccccc1Nc1ccc(CCc2ccc(Nc3ccccc3C(=O)O)cc2)cc1` [Example 136, 2-{4-[2-(4-{2-Hydroxycarbonylphenylamino}phenyl)ethyl]-phenylamino}-benzoic acid], the 50% inhibitory concentration (IC50) at Aβ(1-40) [1] was 3 µM; against Aβ (1-40) peptide it was 53 µM; against Aβ (1-42), > 100 µM; at Aβ(1-40) [2], > 100 µM.

For the molecule `COc1cc(Nc2ccc(CCCc3ccc(Cl)c(Cl)c3)cc2)c([N+](=O)[O-])cc1C(=O)O` [Example 138, 4-{4-[3-(3,4-Dichloro-phenyl)propyl]-phenylamino}-2-methoxy-5-nitro-benzoic acid], the melting point was 74 to 78 °C.

Take `O=C(O)c1cc(F)ccc1Nc1ccc(CCCc2ccc(Cl)c(Cl)c2)cc1` [Example 139, 2-{4-[3-(3,4-Dichloro-phenyl)-propyl]-phenylamino}-5-fluoro-benzoic acid]: the melting point is 122 to 123 °C.

The molecule `Nc1ccc(Nc2ccc(CCCCCc3ccc(Cl)c(Cl)c3)cc2)c(C(=O)O)c1` [Example 140, 5-Amino-2-{4-[5-(3,4-dichloro-phenyl)pentyl]-phenylamino}-benzoic acid] came in with a melting point of 182 to 184 °C.

`O=C(NS(=O)(=O)C(F)(F)F)c1ccccc1Nc1ccc(CCCc2ccc(Cl)c(Cl)c2)cc1` [Example 141, N-(2-{4-[3-(3,4-Dichloro-phenyl)-propyl]-phenylamino}-benzoyl)-C,C,C,-trifluoro-methanesulfonamide]: the IC50 at Aβ(1-40) [1] is 7 µM; on Aβ (1-40) peptide, > 50 µM; on Aβ (1-42), 56.7 µM; at Aβ(1-40) [2] it was > 100 µM.

Turning to `O=C(NS(=O)(=O)c1ccccc1)c1ccccc1Nc1ccc(CCCc2ccc(Cl)c(Cl)c2)cc1` [Example 142, N-(2-{4-[3-(3,4-Dichloro-phenyl)propyl]-phenylamino}-benzoyl)-benzenesulfonamide], the IC50 at Aβ(1-40) [1] is 2.1 µM; against Aβ (1-40) peptide, 55 µM; at Aβ (1-42), 26.9 µM; at Aβ(1-40) [2] it was > 100 µM.

For the molecule `O=C(O)c1cccc(C(F)(F)F)c1Nc1ccc(CCc2ccc(Cl)c(Cl)c2)cc1` [Example 146, 2-{4-[2-(3,4-Dichloro-phenyl)-ethyl]-phenylamino}-3-trifluoromethyl-benzoic acid], the IC50 on Aβ(1-40) [1] is 30 µM; against Aβ (1-40) peptide, > 60 µM; against Aβ (1-42), > 100 µM; at Aβ(1-40) [2] it was > 100 µM.

Turning to `CCCN(CCC)c1ccc(Nc2ccc(CCc3ccc(Cl)c(Cl)c3)cc2)c(C(=O)O)c1` [Example 149, 2-{4-[2-(3,4-Dichlorophenyl)-ethyl]-phenylamino}-5-dipropylamino-benzoic acid], the IC50 at Aβ(1-40) [1] was > 100 µM; at Aβ (1-40) peptide it was > 60 µM; on Aβ (1-42), > 100 µM; at Aβ(1-40) [2], > 100 µM.

With `CCCCN(CCCC)c1ccc(Nc2ccc(CCc3ccc(Cl)c(Cl)c3)cc2)c(C(=O)O)c1` [Example 150, 5-Dibutylamino-2-{4-[2-(3,4-dichloro-phenyl)-ethyl]-phenylamino}-benzoic acid], the half-inhibitory concentration (IC50) is 10 µM at Aβ(1-40) [1], 76 µM on Aβ (1-40) peptide, > 100 µM at Aβ (1-42) and > 100 µM on Aβ(1-40) [2].

For the molecule `Nc1ccc(CCCc2ccc(Nc3ccccc3C(=O)O)cc2)cc1` [Example 159, 2-{4-[3-(4-Aminophenyl)propyl]phenylamino}benzoic acid], the melting point fell in the range of 110 to 112 °C.

(Values after US6972287B1, “Method of inhibiting amyloid protein aggregation and imaging amyloid deposits” (Pfizer Inc., priority 1999, dated 2005).)
